Data reported in patent publication US10266544B2, “Aryl substituted aminomethyl spectinomycin analogs as antibacterial agents” (ST. JUDE CHILDREN'S RESEARCH HOSPITAL, INC., priority 2013, dated 2019).
Structures can show the parent of a compound that is named as a salt. Where two headings read alike, the source gives them in different places.

How the values were obtained:
Type in all cases: cell-based
[1] = test system: Bacillus anthracis, Sterne 34F2; test: microbe, parasite or virus in culture; conditions: STERNE34F2, read-out: MIC B.a.
[2] = test system: Bacillus subtilis (ATCC 23857); test: MIC determination, microbroth dilution; conditions: ATCC23857; Bacillus subtilis (ATCC 23857); read-out: MIC B.s.
[3] = test system: Enterococcus faecalis (ATCC 33186); test: MIC determination, microbroth dilution; conditions: ATCC33186; Enterococcus faecalis (ATCC 33186); read-out: MIC E.f.
[4] = test system: Staphylococcus aureus (ATCC 29213); test: MIC determination, microbroth dilution
[5] = test system: MRSA, Staphylococcus aureus (NRS70); test: MIC determination, microbroth dilution; conditions: Staphylococcus aureus (NRS70); read-out: MIC MRSA
[6] = test system: Streptococcus pneumoniae (R6); test: MIC determination, microbroth dilution
[7] = test system: Streptococcus pyogenes (ATCC 700294); test: MIC determination, microbroth dilution; conditions: ATCC700294; Streptococcus pyogenes (ATCC 700294); read-out: MIC S. py.
[8] = test system: acinetobacter baumannii (ATCC 19606); test: MIC determination, microbroth dilution; conditions: ATCC19606
[9] = test system: Burkholderia cepacia (ATCC 25416); test: MIC determination, microbroth dilution; conditions: Burkholderia cepacia
[10] = test system: Escherichia coli (ATCC 700926); test: MIC determination, microbroth dilution; conditions: ATCC700926; Escherichia coli (ATCC 700926); read-out: MIC E.c.
[11] = test system: E. coli K12 ΔtolC; test: microbe, parasite or virus in culture; conditions: Escherichia coli, read-out: MIC E.c. Δtolc
[12] = test system: Klebsiella pneumoniae (ATCC 33495); test: MIC determination, microbroth dilution; conditions: ATCC33495
[13] = test system: Pseudomonas aeruginosa (PA01); test: MIC determination, microbroth dilution
[14] = test system: Proteus mirabilis (ATCC 25933); test: MIC determination, microbroth dilution; conditions: ATCC25933
[15] = test system: Proteus vulgaris (ATCC 33420); test: MIC determination, microbroth dilution; conditions: ATCC33420
[16] = test system: Stenotrophomonas maltophilia (ATCC 13637); test: MIC determination, microbroth dilution; conditions: ATCC13637; Stenotrophomonas maltophilia (ATCC 13637); read-out: MIC S.m.
[17] = test system: Haemophilus influenza (ATCC 49247); test: microbe, parasite or virus in culture; conditions: ATCC49247; Haemophilus influenza; 4 μg per disc; range of at least two experiments; read-out: Zone of inhibition H.i.
[18] = test system: Legionella pneumophila (ATCC 33153); test: microbe, parasite or virus in culture; conditions: ATCC33153, 72 h, read-out: Zone of inhibition L.p.
[19] = test system: Neisseria meningitides (ATCC 13077); test: Disc diffusion assay; conditions: ATCC13077, 4 μg per disc, read-out: Zone of inhibition N.m.
[20] = test system: Neisseria gonorrhoeae (ATCC 49226); test: Disc diffusion assay; conditions: ATCC49226, 4 μg per disc, read-out: Zone of inhibition N.g.
[21] = test system: Bacillus anthracis; test: microbe, parasite or virus in culture; conditions: read-out: MIC B.a.
[22] = test system: Yersinia pestis; test: microbe, parasite or virus in culture; conditions: read-out: MIC Y.p.
[23] = test system: live vaccine strain (LVS) of Francisella tularensis; test: microbe, parasite or virus in culture; conditions: Francisella tularensis
[24] = test system: Streptococcus pneumoniae clinical isolates representing several serotypes; test: MIC determination, Streptococcus pneumoniae panel of clinical isolates (Table 7); conditions: Streptococcus pneumoniae
[25] = test system: M. tuberculosis clinical isolates; test: microbe, parasite or virus in culture; conditions: Mycobacterium tuberculosis
[26] = test system: Listeria monocytogenes; test: MIC determination (Table 6)
[27] = test system: Moraxella catarrhalis; test: MIC determination (Table 6)
[28] = test system: Neisseria gonorrhoeae (ATCC 49226); test: Agar MIC determination (Alamar Blue); conditions: ATCC49226, agar MIC, read-out: MIC N.g.
[29] = Streptococcus pneumoniae (R6), read-out: MIC S. pn.
[30] = Streptococcus pneumoniae, S. pneumoniae R6, Drug Susceptible, read-out: MIC R6
[31] = ATCC25416, read-out: MIC B.c., Burkholderia cepacia (ATCC 25416)
[32] = ATCC25416, read-out: MIC B.c., Burkholderia cepacia, Table 6
[33] = BAA1407, S. pneumoniae BAA-1407, Macrolide Resistant, read-out: MIC BAA-1407
[34] = S. pneumoniae Daw7, PenG Resistant, read-out: MIC Daw7
[35] = S. pneumoniae Daw8, PenG Resistant, read-out: MIC Daw8
[36] = S. pneumoniae Daw9, PenG Resistant, read-out: MIC Daw9
[37] = S. pneumoniae Daw62, PenG Resistant, read-out: MIC Daw62
[38] = S. pneumoniae Daw64, PenG Resistant, read-out: MIC Daw64
[39] = S. pneumoniae OVA6, Macrolide Resistant, read-out: MIC OVA6
[40] = S. pneumoniae T4X, Drug Susceptible, read-out: MIC T4X

CN[C@@H]1[C@H](O)[C@H](NC)[C@H]2O[C@]3(O)[C@H](O[C@@H]2[C@H]1O)O[C@H](C)C[C@@]3(O)CNCCc1ccccc1 [compound 6, 3′-(R)-3′-(phenethylaminomethyl)dihydrospectinomycin Trihydrochloride]
MIC [1]: 6.3 to 12.5 µg/mL | MIC [2]: 1.6 µg/mL | MIC [3]: 12.5 µg/mL | MIC ([4]; Staphylococcus aureus, ATCC29213, read-out: MIC S.a.): 6.3 to 12.5 µg/mL | MIC [5]: 12.5 to 25 µg/mL | MIC [6, 29]: 3.1 µg/mL | MIC [6, 30]: 6.3 µg/mL | MIC [7]: 3.1 µg/mL | MIC [8]: > 200 µg/mL | MIC [9, 31]: > 200 µg/mL | MIC [9, 32]: > 200 µg/mL | MIC [10]: 6.3 to 12.5 µg/mL | MIC [11]: 3.1 to 6.3 µg/mL | MIC [12]: 25 to 50 µg/mL | MIC [13]: ≥ 200 µg/mL | MIC [14]: > 200 µg/mL | MIC [15]: 50 to 100 µg/mL | MIC [16]: 1.6 µg/mL | zone of inhibition at 4 µg/disc [17]: 14 mm | zone of inhibition at 4 µg/disc [18]: 36 mm | zone of inhibition at 4 µg/disc [19]: 16 mm | zone of inhibition at 4 µg/disc [20]: 16 mm | MIC [21]: 6.3 to 12.5 µg/mL | MIC [22]: 200 µg/mL | MIC ([23]; read-out: MIC F.t.): 1.6 µg/mL | MIC [24, 33]: 12.5 µg/mL | MIC ([24]; S. pneumoniae A66.1x, Drug Susceptible, read-out: MIC A66.1x): 3.1 µg/mL | MIC ([24]; S. pneumoniae BHN97x, Drug Susceptible, read-out: MIC BHN97x): 3.1 µg/mL | MIC ([24]; S. pneumoniae D39X, Drug Susceptible, read-out: MIC D39X): 3.1 µg/mL | MIC [24, 34]: 6.3 µg/mL | MIC [24, 35]: 6.3 µg/mL | MIC [24, 36]: 6.3 µg/mL | MIC [24, 37]: 6.3 µg/mL | MIC [24, 38]: 6.3 µg/mL | MIC [24, 39]: 3.1 µg/mL | MIC [24, 40]: 3.1 µg/mL | MIC ([25]; H37RV, read-out: MIC H37Rv): 1.6 µg/mL | MIC ([25]; read-out: MIC TN022): 3.1 µg/mL | MIC ([25]; read-out: MIC TN026): 3.1 µg/mL | MIC [26]: 3.1 µg/mL | MIC [27]: 0.4 µg/mL

CN[C@@H]1[C@H](O)[C@H](NC)[C@H]2O[C@]3(O)[C@H](O[C@@H]2[C@H]1O)O[C@H](C)C[C@@]3(O)CNCc1ccccc1OC(F)(F)F [compound 10, Trihydrochloride]
MIC [1]: 200 µg/mL | MIC [2]: 50 µg/mL | MIC [3]: 200 µg/mL | MIC ([4]; ATCC29213, Staphylococcus aureus (ATCC 29213), read-out: MIC S.a.): 200 µg/mL | MIC [5]: 200 µg/mL | MIC [6, 29]: 25 µg/mL | MIC [6, 30]: 12.5 µg/mL | MIC [7]: 25 to 50 µg/mL | MIC [8]: 100 to 200 µg/mL | MIC [9, 31]: > 200 µg/mL | MIC [9, 32]: > 200 µg/mL | MIC [10]: 200 µg/mL | MIC [11]: 25 to 50 µg/mL | MIC [12]: 100 to 200 µg/mL | MIC [13]: 200 µg/mL | MIC [14]: > 200 µg/mL | MIC [15]: > 200 µg/mL | MIC [16]: 50 µg/mL | zone of inhibition at 4 µg/disc [17]: 0 mm | zone of inhibition at 4 µg/disc [19]: 0 mm | zone of inhibition at 4 µg/disc [20]: 8 mm | MIC [28]: 200 µg/mL | MIC [21]: 200 µg/mL | MIC [22]: 200 µg/mL | MIC [23]: 25 µg/mL | MIC ([23]; read-out: MIC F.t.): 25 µg/mL | MIC [24, 33]: 25 µg/mL | MIC [24, 34]: 12.5 µg/mL | MIC [24, 35]: 12.5 µg/mL | MIC [24, 36]: 12.5 µg/mL | MIC [24, 37]: 12.5 µg/mL | MIC [24, 38]: 25 µg/mL | MIC [24, 39]: 6.3 µg/mL | MIC [24, 40]: 3.1 µg/mL | MIC ([25]; H37RV, read-out: MIC H37Rv): 200 µg/mL | MIC [26]: 100 µg/mL | MIC [27]: 50 to 100 µg/mL
